Values quoted from earlier work as cited in US11019825B2, “Product” (priority 2015, dated 2021).

What was measured:
canola seedlings = conditions: low concentrations

Harzianic acid
antibiotic activity in vitro (Rhizoctonia solani): antibiotic activity
antibiotic activity in vitro (Pythium irregulare): antibiotic activity
antibiotic activity in vitro (Sclerotinia sclerotiorum): antibiotic activity
plant growth promotion effect (canola seedlings): plant growth promotion effect
